Measured values taken from US11364242B2, “Treatment agents for inhibiting HIV and cancer in HIV infected patients” (UNIVERSITY OF MARYLAND, BALTIMORE, priority 2015, dated 2022).
“Also recorded” adds a separate entry of the source.

Experiments:
[1] = tested on: chronically HIV-infected U1 cell line; assay: HIV activation in chronically infected U1 cells, p24 ELISA; assay type: cell-based; details: INK128 <10 nM, day 3
Procedure: FIG. 5A-5C are bar graphs that illustrate INK128's inhibition of HIV activation in chronically infected cells. Latently HIV infected U1 cells were cultured in the presence of various concentrations of INK128 for 1 hour. Cultures were then untreated (FIG. 5A), or treated with HIV inducers PMA (FIG. 5B) and Tat protein (FIG. 5C). HIV production was measured by p24 ELISA in the culture supernatants on day 3 according to an embodiment.
The effects of INK128 on activation of HIV in the chronically HIV-infected U1 cell line were examined. The U1 cell line carries two copies of the HIV provirus per cell (33). Under basal conditions, U1 cells express low levels of HIV, but HIV expression is enhanced by stimulation with the phorbol ester PMA or by exogenous addition of Tat (34, 35). U1 cells were cultured in the presence of INK128 in the absence and presence of 10 nM PMA or 1 μg/mL Tat. […] As expected, unstimulated U1 cells produced low levels of HIV p24, but production was increased by addition of PMA or Tat.

U1 cells = assay: U1 cell proliferation (optimization experiments); assay type: cell-based; details: concentrations higher than 10 nM
HIV-1 BaL = assay: Antiretroviral potency with and without INK128 in PBLs infected with HIV BaL; assay type: cell-based; details: two donors
Procedure: PBLs were separated from buffy coats by density centrifugation over Ficoll-Hypaque (Sigma™), and activated by culture in the presence of 1 μg/mL anti-human CD3 antibody (clone x35, Fisher Scientific™) and 2 μg/mL anti-human CD28 antibody (Clone CD28.6, eBioscience™) for 3 days. Activated cells were infected by incubation with virus at a multiplicity of infection (MOI) of 0.001 for 2 hours. Infected cells were washed three times with PBS and cultured in 5% CO2 at 37° C., in RPMI/10% FBS supplemented with 100 units/mL IL-2 (Roche™) and antiviral drugs, in 96-well flat-bottom plates at a density of […] PBLs per 200 μL. Following 3 d of culture, half of the medium was replaced with fresh medium containing IL-2 and antiviral drugs. On day 7, viral replication was measured by p24 ELISA (Coulter) in culture supernatants and cell viability was measured by MTT assays.
Available ARTs target the HIV lifecycle steps of entry, reverse transcription, integration, and maturation. […] In addition, by targeting virus transcription, INK128 could have favorable interactions with inhibitors of reverse transcription (RTIs), integration (Hs), and protease (PIs). […] We conducted these assays in activated PBLs infected with R5 HIV BaL and treated with various dilutions of Maraviroc (CCR5 antagonist), Efavirenz (RTI), Raltegravir (II), and Indinavir (PI). INK128 was used at low concentrations (<EC50) to better detect changes in ART potency (Table 7).
Prism software. Data are from 2 experiments, each with a different donor.

[2] = tested on: non small cell lung cancer (NSCLC) A549 cells; assay: A549 xenograft tumor in NSG mice; assay type: in vivo; details: 5 mg/kg daily ip for 4 weeks
Procedure: A xenograft tumor was induced by subcutaneous injection of 5×10^6 non small cell lung cancer (NSCLC) A549 cells in mice according to an embodiment.
A xenograft tumor was induced by subcutaneous injection of 5×10^6 non small cell lung cancer (NSCLC) A549 cells in mice. After 3 weeks, tumors became visible (˜200 mm^3, as measured with calipers). Mice were treated with INK128, or vehicle control (FIG. 10A), daily (via ip) for 4 weeks. INK-128 was used at 5 mg/kg (FIG. 10B). Tumor volume was measured at the indicated time points (FIG. 10C).

CXCR4 = assay: Flow cytometry quantitation of surface receptor on PBLs; details: IL-2, 7 days, three donors
HIV BaL = HIV BaL infection of NSG mice reconstituted with human PBLs
[3] = Tolerability in huPBL-NSG mice (body weight, wasting, death)

Question: For `CC(C)n1nc(-c2ccc3oc(N)nc3c2)c2c(N)ncnc21` [INK128, 5-(4-amino-1-propan-2-ylpyrazolo[3,4-d]pyrimidin-3-yl)-1,3-benzoxazol-2-amine], which p24 production ([1]; U1 cells treated with 10 nM PMA) is on record?
Answer: Its p24 production is “inhibited p24 production”.

Question: What about the p24 production ([1]; U1 cells treated with 1 μg/mL Tat) of the same molecule?
Answer: Its p24 production is “inhibited p24 production”.

Question: And the p24 production ([1]; untreated U1 cells)?
Answer: The p24 production was “inhibited p24 production”.

Question: What about the “cell proliferation of U1 cells” value (U1 cells) of the same molecule?
Answer: The value was “inhibition of cell proliferation”.

Question: And the “effect on the potency of the other tested ARTs (Efavirenz, Raltegravir, Indinavir)” value (HIV-1 BaL)?
Answer: The value was “no negative effect”.

Question: What about the “enhancement of the antiviral potency of Maraviroc” value (HIV-1 BaL) of the same molecule?
Answer: Its value is “five- to six fold”.

Question: What about the tumor growth [2] of the same molecule?
Answer: The tumor growth was “inhibits tumor growth”.

Question: And the “CXCR4 levels (percentage or density)” value (CXCR4)?
Answer: Its value is “did not change”.

Question: And the “mean CD4/CD8 cell ratio” value (HIV BaL; day 14, 1 mg/kg/day i.p.)?
Answer: The value was 0.11.

Question: And the “mean CD4/CD8 cell ratio” value (HIV BaL; day 14, 3 mg/kg/day i.p.)?
Answer: The value was 0.18.

Question: What about the “mean CD4/CD8 cell ratio” value (HIV BaL; day 14, 5 mg/kg/day i.p.) of the same molecule?
Answer: The value was 0.76.

Question: And the “effect on weight of the animals” value ([3]; 1-5 mg/kg once daily i.p. for 14 days)?
Answer: Its value is “no adverse effects; also recorded: without obvious toxicity”.

Question: What about the “toxicity in pilot experiment” value ([3]; uninfected huPBL-NSG mice, 7 mg/kg daily i.p. for 2 wk) of the same molecule?
Answer: The value was “wasting and death”.
